The subject of data set [1] is Nucleic Acid. In words: Induction of Escherichia coli pBR322 DNA cleavage assessed as supercoiled form of DNA at 25 uM after 45 mins by agarose gel electrophoresis in presence of 100 uM of copper and catalase. Format: nucleic-acid assay.
The subject of data set [2] is MCF7. In words: Induction of ROS production in human MCF7 cells at 1 mM after 3 hrs by DCFDA assay relative to control. Format: functional.
For data set [3], the system named is Nucleic Acid. In words: Induction of Escherichia coli pBR322 DNA cleavage assessed as open circular form of DNA at 25 uM after 45 mins by agarose gel electrophoresis in presence of copper. In kind it is nucleic-acid assay.
Data set [4] relates to Nucleic Acid. Kind of data set: Induction of Escherichia coli pBR322 DNA cleavage at 25 uM after 45 mins by agarose gel electrophoresis in presence of 100 uM of copper and 100 mM of mannitol. Format: nucleic-acid assay.
The test system of data set [5] is Nucleic Acid. Kind of data set: Induction of Escherichia coli pBR322 DNA cleavage assessed as open circular form of DNA at 25 uM after 30 mins by agarose gel electrophoresis in presence of 100 uM of copper. In kind it is nucleic-acid assay.
The subject of data set [6] is Nucleic Acid. Kind of data set: Induction of Escherichia coli pBR322 DNA cleavage assessed as supercoiled form of DNA at 25 uM after 45 mins by agarose gel electrophoresis in presence of 100 uM of copper and sodium azide. In kind it is nucleic-acid assay.
In data set [7] the test system is MCF7. Kind of data set: Cytotoxicity against human MCF7 cells assessed as cell viability at 5 uM after 72 hrs by MTT assay pretreated with 1 mM of NAC relative to control. Format: functional. On the technique in general: Tetrazolium dyes change colour on reduction, which living cells bring about.
Data set [8] in a line: Induction of copper chelation assessed as compound copper complex formation at 25 uM by absorption spectroscopic analysis. In kind it is physicochemical.
Data set [9] relates to Nucleic Acid. Kind of data set: Induction of Escherichia coli pBR322 DNA cleavage at 25 uM after 45 mins by agarose gel electrophoresis in presence of 100 uM of copper and 250 uM of EDTA. Format: nucleic-acid assay.
The subject of data set [10] is Calf thymus DNA. Kind of data set: Binding affinity to calf thymus DNA assessed as increase of viscosity of DNA solution at 0.2 mM after 30 mins. In kind it is nucleic-acid assay. Conditions: Bos taurus.
The subject of data set [11] is Nucleic Acid. In words: Induction of Escherichia coli pBR322 DNA cleavage assessed as supercoiled form of DNA at 25 uM after 45 mins by agarose gel electrophoresis in presence of 100 uM of copper. Format: nucleic-acid assay.
For data set [12], the system named is MCF7. Kind of data set: Induction of apoptosis in human MCF7 cells assessed as DNA ladder formation after 24 hrs using ethidium bromide staining by agarose gel electrophoresis. Format: functional, cell-based.
Data set [13] has as its system Nucleic Acid. Kind of data set: Induction of Escherichia coli pBR322 DNA cleavage at 25 uM after 45 mins by agarose gel electrophoresis in presence of 100 uM of copper and 250 uM of neocuproine. In kind it is nucleic-acid assay.
Data set [14] deals with Nucleic Acid. In words: Induction of Escherichia coli pBR322 DNA cleavage at 25 uM after 45 mins by agarose gel electrophoresis. In kind it is nucleic-acid assay.
Data set [15] is described as follows: Induction of hydrogen peroxide production at 100 uM after 20 mins by horse radish peroxidase assay relative to control in presence of 100 uM of copper. Format: physicochemical.
The subject of data set [16] is MCF7. Kind of data set: Induction of ROS production in human MCF7 cells after 3 hrs by DCFDA assay. In kind it is functional, cell-based.
Data set [17] has as its system MCF7. Kind of data set: Induction of ROS production in human MCF7 cells at 15 uM after 3 hrs by DCFDA assay relative to control. In kind it is functional.
Data set [18] concerns Nucleic Acid. Kind of data set: Induction of Escherichia coli pBR322 DNA cleavage assessed as supercoiled form of DNA at 25 uM after 45 mins by agarose gel electrophoresis in presence of 100 uM of copper and EDTA. Format: nucleic-acid assay.
The subject of data set [19] is MCF7. Kind of data set: Induction of ROS production in human MCF7 cells at 10 uM after 3 hrs by DCFDA assay relative to control. In kind it is functional.
Data set [20] concerns Nucleic Acid. Kind of data set: Induction of Escherichia coli pBR322 DNA cleavage at 25 uM after 45 mins by agarose gel electrophoresis in presence of 100 uM of copper and 100 mM of sodium azide. Format: nucleic-acid assay.
For data set [21], the system named is Nucleic Acid. Kind of data set: Induction of Escherichia coli pBR322 DNA cleavage at 25 uM after 45 mins by agarose gel electrophoresis in presence of 100 uM of copper and 250 U/ml of superoxide dismutase. In kind it is nucleic-acid assay.
Data set [22] deals with Nucleic Acid. In words: Induction of Escherichia coli pBR322 DNA cleavage at 25 uM after 45 mins by agarose gel electrophoresis in presence of <100 uM of copper. Format: nucleic-acid assay.
The test system of data set [23] is Nucleic Acid. In words: Induction of Escherichia coli pBR322 DNA cleavage at 25 uM after 45 mins by agarose gel electrophoresis in presence of 100 uM of copper and 500 U/ml of superoxide dismutase. In kind it is nucleic-acid assay.
For data set [24], the system named is Calf thymus DNA. In words: Binding affinity to calf thymus DNA assessed as increase of ethidium bromide fluorescence quenching at 0.2 mM after 30 mins. Format: nucleic-acid assay. As to conditions: Bos taurus.
For data set [25], the system named is Nucleic Acid. Kind of data set: Induction of Escherichia coli pBR322 DNA cleavage at 25 uM after 45 mins by agarose gel electrophoresis in presence of 100 uM of copper and 500 U/ml of catalase. Format: nucleic-acid assay.
Data set [26] in a line: Induction of superoxide radical production at 100 uM after 20 mins by NBT reduction assay relative to control in presence of 100 uM of copper. In kind it is physicochemical.
Data set [27] has as its system Nucleic Acid. In words: Induction of Escherichia coli pBR322 DNA cleavage assessed as supercoiled form of DNA at 25 uM after 45 mins by agarose gel electrophoresis in presence of 100 uM of copper and neocuproine. In kind it is nucleic-acid assay.
Data set [28] concerns Nucleic Acid. Kind of data set: Induction of Escherichia coli pBR322 DNA cleavage at 25 uM after 45 mins by agarose gel electrophoresis in presence of 100 uM of copper and 500 mM of mannitol. Format: nucleic-acid assay.
The test system of data set [29] is Calf thymus DNA. In words: Binding affinity to calf thymus DNA at 50 uM after 5 mins by absorption spectroscopic analysis. Format: nucleic-acid assay. As to conditions: Bos taurus.
In data set [30] the test system is Nucleic Acid. Kind of data set: Induction of Escherichia coli pBR322 DNA cleavage at 25 uM after 45 mins by agarose gel electrophoresis in presence of 100 uM of copper and 100 mM of DMSO. In kind it is nucleic-acid assay.
The subject of data set [31] is MCF7. In words: Cytotoxicity against human MCF7 cells after 72 hrs by MTT assay. Format: functional, cell-based. Conditions: for IC50: MCF7, 72 h.
The test system of data set [32] is MCF7. Kind of data set: Cytotoxicity against human MCF7 cells assessed as cell viability at 5 uM after 72 hrs by MTT assay. Format: functional. Conditions: MCF7, 72 h, read-out: Activity.
For data set [33], the system named is Nucleic Acid. Kind of data set: Induction of Escherichia coli pBR322 DNA cleavage at 5 to 10 uM uM after 45 mins by agarose gel electrophoresis in presence of 100 uM of copper. In kind it is nucleic-acid assay.
Data set [34] concerns Nucleic Acid. In words: Induction of Escherichia coli pBR322 DNA cleavage assessed as linear form of DNA at 25 uM after 45 mins by agarose gel electrophoresis in presence of copper. In kind it is nucleic-acid assay.
Data set [35] deals with MCF7. In words: Induction of morphological changes in human MCF7 cells at 2.5 to 40 uM after 24 hrs by phase contrast microscopic analysis. Format: functional, cell-based.
Data set [36] has as its system MCF7. In words: Cytotoxicity against human MCF7 cells at 100 uM after 72 hrs by MTT assay. In kind it is functional, cell-based.
The subject of data set [37] is MCF7. Kind of data set: Cytotoxicity against human MCF7 cells at 50 uM after 72 hrs by MTT assay relative to control. Format: functional.
Data set [38] deals with Nucleic Acid. In words: Induction of Escherichia coli pBR322 DNA cleavage at 25 uM after 45 mins under anoxic condition by agarose gel electrophoresis in presence of copper. In kind it is nucleic-acid assay.
Data set [39] has as its system MCF7. Kind of data set: Ratio of compound IC50 to curcumin IC50 for human MCF7 cells. Format: functional.

The source made the active and inactive calls. The calls are words filed in the database; no cut-off is given here.

The term IC50 denotes the point on the concentration scale where inhibition reaches its midpoint. Low values mean inhibition by little substance, high ones a need for much substance. Take `O=C(CCCCCCCCc1ccc(O)c(O)c1)c1c(O)cccc1O` [MALABARICONE C]: the Activity with Nucleic Acid [1] was 82%; in the data set with MCF7 [2], 71%; in the data set with Nucleic Acid [6] it was 93.1%; in the data set on MCF7 [7] it was 75.32%; in data set [8] it was “Active”; in the data set with MCF7 [12], “Dose-dependent effect”. Further, the Activity in data set [15] is 85%; in the data set on MCF7 [16], “Dose-dependent effect”; in the data set with MCF7 [17], 50%; with Nucleic Acid [18], 76.2%; with MCF7 [19], 26%; with Calf thymus DNA [24], 24.4%. Further, the Activity in [26] turned out to be 42%; in the data set on Nucleic Acid [27] it was 98.5%. Moreover, the result in the data set on Nucleic Acid [3], in the data set on Nucleic Acid [4], with Nucleic Acid [5], in the data set on Calf thymus DNA [10], in the data set with Nucleic Acid [21] and in the data set with Nucleic Acid [23] was Active. In addition, the outcome in the data set on Nucleic Acid [28], in the data set on Calf thymus DNA [29], with Nucleic Acid [30], in the data set on Nucleic Acid [33], in the data set with Nucleic Acid [34] and in the data set with MCF7 [35] was Active. The outcome in the data set with Nucleic Acid [9], with Nucleic Acid [11], with Nucleic Acid [13], in the data set with Nucleic Acid [14], with Nucleic Acid [20] and with Nucleic Acid [22] was inactive. Further, the outcome with Nucleic Acid [25] was inactive. In the data set on MCF7 [31], the IC50 was determined as 5.26 µM. Further, the viability at 5 µM in the data set on MCF7 [32] came out at 45.3%.

As to `O=C(CCCCCCCCc1ccc(O)cc1)c1c(O)cccc1O`, the outcome in the data set on Nucleic Acid [3] was Active.

As to `C=CCc1ccc(O)c(O)c1`, in the data set with MCF7 [36], the result was inactive.

For the compound `O=C(CCCCCCCCc1ccccc1)c1c(O)cccc1O` [MALABARICONE A], the result in the data set with Nucleic Acid [3] and in the data set with Nucleic Acid [38] was inactive. In addition, the Activity in the data set on MCF7 [37] is 12%; with MCF7 [31] it was “Dose-dependent effect”. For the same compound, the result in the data set on Nucleic Acid [34] was Active.

`O=C(CCCCCCCCc1ccc2c(c1)OCO2)c1c(O)cccc1O`: in the data set with Nucleic Acid [3], the outcome was Active. For the same compound, the outcome with Nucleic Acid [38] and in the data set with Nucleic Acid [34] was inactive. Further, half-maximal inhibition in the data set on MCF7 [31] (IC50) was put at 15.7 µM.

Consider `COc1cc(/C=C/C(=O)CC(=O)/C=C/c2ccc(O)c(OC)c2)ccc1O` [CURCUMIN], for which the “fold change (FC)” value in the data set on MCF7 [39] was determined as 4. Further, in the data set with MCF7 [31], the IC50 is 24.5 µM.

The values above are taken from ChEMBL document CHEMBL1250531, “Comparative nuclease and anti-cancer properties of the naturally occurring malabaricones” (Bioorg Med Chem, 2010).
